# pKd: −log10 of the molar value. Where a SMILES comes first, the peptide text is derived from it. Bridges are numbered along the chain shown (N, C = ends). [ ]: non-standard residue; d: D form. The star is where a group is joined. hPhe(3-Cl-4-CF3) = N[C@@H](CCc1ccc(C(F)(F)F)c(Cl)c1)C(=O)O; NPrPhe(4-CF3) = CCCN[C@@H](Cc1ccc(C(F)(F)F)cc1)C(=O)O; NMeGly(cPent) = CN[C@H](C(=O)O)C1CCCC1; Ac4c(3,3-Me2) = CC1(C)CC(N)(C(=O)O)C1; NMeD = CN[C@@H](CC(=O)O)C(=O)O; NMeL = CN[C@@H](CC(C)C)C(=O)O; Morpholide = C1CN(*)CCO1; Sar = CNCC(=O)O
# Assays:
# [1] = target: GDP-bound KRAS wild-type protein (Homo sapiens, UniProt P01116); test: Binding to KRAS by surface plasmon resonance (SPR), Single Cycle Kinetics; conditions: SPR, Single Cycle Kinetics, GDP-bound KRAS wild-type protein; read-out: KRAS KD
# [2] = target: GDP-bound NRAS wild-type protein (Homo sapiens, UniProt P01111); test: Binding to NRAS by surface plasmon resonance (SPR), Single Cycle Kinetics; conditions: ratio of KD for GDP-bound NRAS wild-type protein to KD for KRAS, SPR
# [3] = target: GDP-bound HRAS wild-type protein (Homo sapiens, UniProt P01112); test: Binding to HRAS by surface plasmon resonance (SPR), Single Cycle Kinetics; conditions: ratio of KD for GDP-bound HRAS wild-type protein to KD for KRAS, SPR
# [4] = tested on: human lung cancer strain NCI-H441; test: cells; conditions: NCI-H441, 96 h, read-out: NCI-H441 IC50 (nM), NCI-H441 cell proliferation, 4 days, CellTiter-Glo;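 note: cell proliferation inhibition after four days measured by CellTiter-Glo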
# Sequence of GDP-bound HRAS wild-type protein (P01112 whole entry): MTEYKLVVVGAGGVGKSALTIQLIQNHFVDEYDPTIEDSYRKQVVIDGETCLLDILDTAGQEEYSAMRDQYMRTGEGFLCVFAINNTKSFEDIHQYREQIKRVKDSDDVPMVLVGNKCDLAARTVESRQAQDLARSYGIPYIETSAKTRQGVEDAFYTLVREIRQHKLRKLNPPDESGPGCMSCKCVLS
# Sequence of GDP-bound NRAS wild-type protein (P01111 whole entry): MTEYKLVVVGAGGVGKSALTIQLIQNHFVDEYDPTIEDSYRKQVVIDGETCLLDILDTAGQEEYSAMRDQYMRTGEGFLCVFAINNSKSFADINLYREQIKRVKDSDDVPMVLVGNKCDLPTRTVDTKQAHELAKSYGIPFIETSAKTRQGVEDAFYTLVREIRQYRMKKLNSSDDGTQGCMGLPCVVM
# Sequence of GDP-bound KRAS wild-type protein (P01116 whole entry): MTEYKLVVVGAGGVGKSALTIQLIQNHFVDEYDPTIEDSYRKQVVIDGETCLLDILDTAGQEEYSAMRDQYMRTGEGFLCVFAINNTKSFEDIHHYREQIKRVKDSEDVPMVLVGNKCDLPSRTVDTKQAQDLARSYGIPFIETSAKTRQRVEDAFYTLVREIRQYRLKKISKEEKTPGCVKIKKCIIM
Compound,pKd [1],IC50 [4] [nM],NRAS/KRAS (KD ratio) [2],HRAS/KRAS (KD ratio) [3]
"CCCN1C(=O)CN(C)C(=O)CN(C)C(=O)[C@H]([C@@H](C)OC)NC(=O)[C@H](CC(C)C)N(C)C(=O)C[C@@H](C(=O)N2CCOCC2)N(C)C(=O)[C@H](C2CCCC2)N(C)C(=O)C2(CC(C)(C)C2)NC(=O)[C@@H]2CCCN2C(=O)[C@H](CCc2ccc(C(F)(F)F)c(Cl)c2)NC(=O)CN(C)C(=O)[C@@H]1Cc1ccc(C(F)(F)F)cc1 [PP1963] ([NMeL]T(Me)[Sar][Sar][NPrPhe(4-CF3)][Sar][hPhe(3-Cl-4-CF3)]P[Ac4c(3,3-Me2)][NMeGly(cPent)][NMeD]-Morpholide; lactam N-11)",9.74,9.1,B (a compound having 3 or more and less than 10 is denoted as B),C (A compound having a KD ratio of 0.1 or more and less than 3 is denoted as C)
CCCN(C)C(=O)[C@@H]1CC(=O)N(C)[C@@H](CC(F)(F)F)C(=O)N[C@@H]([C@@H](C)CC)C(=O)N(C)CC(=O)N(C)[C@H]2C/C=C\CCN(C2=O)[C@@H](Cc2ccc(C(F)(F)F)cc2)C(=O)N(C)CC(=O)N[C@@H](CCc2cc(F)c(C(F)(F)F)c(F)c2)C(=O)N2C[C@H](OCC)C[C@H]2C(=O)NC2(CC(F)(F)C2)C(=O)N(C)[C@@H](C2CCCC2)C(=O)N1C [PP1734],9.77,4.4,A (a compound having 10 or more and less than 20 is denoted as A),A (a compound having 10 or more and less than 20 is denoted as A)
CCC[C@H]1C(=O)N[C@@H]([C@@H](C)CC)C(=O)N[C@@H](C)C(=O)N(C)[C@H]2C/C=C\CCN(C2=O)[C@@H](Cc2ccc(C(F)(F)F)cc2)C(=O)N(C)CC(=O)N[C@@H](CCc2cc(F)c(C(F)(F)F)c(F)c2)C(=O)N2C[C@H](OCC)C[C@H]2C(=O)NC2(CC(C)(C)C2)C(=O)N(C)[C@@H](C2CCCC2)C(=O)N(C)[C@H](C(=O)N(C)C)CC(=O)N1C [PP1927],9.07,23.5,A (a compound having 10 or more and less than 20 is denoted as A),A (a compound having 10 or more and less than 20 is denoted as A)
CCO[C@@H]1C[C@H]2C(=O)NC3(CCC3)C(=O)N(C)[C@@H](C3CCCC3)C(=O)N3CCC[C@@H]3CC(=O)N(C)[C@@H](CC3CC3)C(=O)N[C@@H]([C@@H](C)CC)C(=O)N(C)CC(=O)N(C)[C@H]3C/C=C\CCN(C3=O)[C@@H](Cc3ccc(C(F)(F)F)cc3)C(=O)N(C)CC(=O)N[C@@H](CCc3ccc(C(F)(F)F)c(OC)c3)C(=O)N2C1 [PP1616],9.54,33.5,B (a compound having 3 or more and less than 10 is denoted as B),B (a compound having 3 or more and less than 10 is denoted as B)
CCO[C@@H]1C[C@H]2C(=O)NC3(CC(C)(C)C3)C(=O)N(C)[C@@H](C3CCCC3)C(=O)N(C)[C@H](C(=O)N(C)C)CC(=O)N(C)[C@@H](CC(C)C)C(=O)N[C@@H]([C@@H](C)CC)C(=O)N(C)CC(=O)N(C)[C@H]3C/C=C\CCN(C3=O)[C@@H](Cc3ccc(C(F)(F)F)cc3)C(=O)N(C)CC(=O)N[C@@H](CCc3cc(F)c(Cl)c(F)c3)C(=O)N2C1 [PP1761],9.77,5.2,A (a compound having 10 or more and less than 20 is denoted as A),A (a compound having 10 or more and less than 20 is denoted as A)
CCO[C@@H]1C[C@H]2C(=O)NC3(CCC3)C(=O)N(C)[C@@H](C(CC)CC)C(=O)N3CCC[C@@H]3CC(=O)N(C)[C@@H](CC3CC3)C(=O)N[C@@H]([C@@H](C)CC)C(=O)N(C)CC(=O)N(C)[C@H]3C/C=C\CCN(C3=O)[C@@H](Cc3ccc(C(F)(F)F)cc3)C(=O)N(C)CC(=O)N[C@@H](CCc3cc(F)c(C(F)(F)F)c(F)c3)C(=O)N2C1 [PP1612],8.92,61.9,B (a compound having 3 or more and less than 10 is denoted as B),B (a compound having 3 or more and less than 10 is denoted as B)
CCO[C@@H]1C[C@H]2C(=O)NC3(CCC3)C(=O)N(C)[C@@H](C3CCCC3)C(=O)N(C)[C@H](C(=O)N(C)CC)CC(=O)N(C)[C@@H](CC3CC3)C(=O)N[C@@H]([C@@H](C)CC)C(=O)N(C)CC(=O)N(C)[C@H]3C/C=C\CCN(C3=O)[C@@H](Cc3ccc(C)cc3)C(=O)N(C)CC(=O)N[C@@H](CCc3ccc(C(F)(F)F)c(OC)c3)C(=O)N2C1 [PP1879],9.74,16.9,A (a compound having 10 or more and less than 20 is denoted as A),B (a compound having 3 or more and less than 10 is denoted as B)
CC[C@H](C)[C@@H]1NC(=O)[C@H](CC(C)C)N(C)C(=O)C[C@@H](C(=O)N(C)C)N(C)C(=O)[C@H](C2CCCC2)N(C)C(=O)C2(CC(C)(C)C2)NC(=O)[C@@H]2C[C@H](C)CN2C(=O)[C@H](CCc2cc(F)c(C(F)(F)F)c(F)c2)NC(=O)CN(C)C(=O)[C@H](Cc2ccc(C(F)(F)F)cc2)N2CC/C=C\C[C@@H](C2=O)N(C)C(=O)CN(C)C1=O [PP1662],9.85,6.4,A (a compound having 10 or more and less than 20 is denoted as A),B (a compound having 3 or more and less than 10 is denoted as B)

# Molecules with a higher pKd [1], results first:
pKd [1],IC50 [4] [nM],Compound,NRAS/KRAS (KD ratio) [2],HRAS/KRAS (KD ratio) [3]
9.92,15.5,CCO[C@@H]1C[C@H]2C(=O)NC3(CCC3)C(=O)N(C)[C@@H](C3CCCC3)C(=O)N(C)[C@H](C(=O)N(C)CC)CC(=O)N(C)[C@@H](C3CCC3)C(=O)N[C@@H]([C@@H](C)CC)C(=O)N(C)CC(=O)N(C)[C@H]3C/C=C\CCN(C3=O)[C@@H](Cc3ccc(C(F)(F)F)cc3)C(=O)N(C)CC(=O)N[C@@H](CCc3cc(F)c(C(F)(F)F)c(F)c3)C(=O)N2C1 [PP1996],A (a compound having 10 or more and less than 20 is denoted as A),B (a compound having 3 or more and less than 10 is denoted as B)
9.92,2.8,CCC[C@H]1C(=O)N[C@@H]([C@@H](C)CC)C(=O)N(C)CC(=O)N(C)[C@H]2C/C=C\CCN(C2=O)[C@@H](Cc2ccc(C(F)(F)F)cc2)C(=O)N(C)CC(=O)N[C@@H](CCc2cc(F)c(C(F)(F)F)c(F)c2)C(=O)N2C[C@H](OCC)C[C@H]2C(=O)NC2(CC(C)(C)C2)C(=O)N(C)[C@@H](C2CCCC2)C(=O)N(C)[C@H](C(=O)N(C)CC)CC(=O)N1C [PP1646],A (a compound having 10 or more and less than 20 is denoted as A),A (a compound having 10 or more and less than 20 is denoted as A)
9.96,4.3,C#CC[C@H]1C(=O)N[C@@H]([C@@H](C)CC)C(=O)N(C)CC(=O)N(C)[C@H]2C/C=C\CCN(C2=O)[C@@H](Cc2ccc(C(F)(F)F)cc2)C(=O)N(C)CC(=O)N[C@@H](CCc2cc(F)c(C(F)(F)F)c(F)c2)C(=O)N2C[C@H](F)C[C@H]2C(=O)NC2(CC(C)(C)C2)C(=O)N(C)[C@@H](C2CCCC2)C(=O)N(C)[C@H](C(=O)N(C)CCC)CC(=O)N1C [PP1692],AA (a compound having 20 or more is denoted as AA),A (a compound having 10 or more and less than 20 is denoted as A)
10.07,4.9,CCCN(C)C(=O)[C@@H]1CC(=O)N(C)[C@@H](CC(F)(F)F)C(=O)N[C@@H]([C@@H](C)CC)C(=O)N(C)CC(=O)N(C)[C@H]2C/C=C\CCN(C2=O)[C@@H](Cc2ccc(C(F)(F)F)cc2)C(=O)N(C)CC(=O)N[C@@H](CCc2cc(F)c(C(F)(F)F)c(F)c2)C(=O)N2C[C@H](OCC)C[C@H]2C(=O)NC2(CCC2)C(=O)N(C)[C@@H](C2CCCC2)C(=O)N1C [PP1702],A (a compound having 10 or more and less than 20 is denoted as A),A (a compound having 10 or more and less than 20 is denoted as A)
10.09,2.6,CC[C@H](C)[C@@H]1NC(=O)[C@H](CC(F)(F)F)N(C)C(=O)C[C@@H](C(=O)N(C)C)N(C)C(=O)[C@H](C2CCCC2)N(C)C(=O)C2(CC(C)(C)C2)NC(=O)[C@@H]2C[C@H](C)CN2C(=O)[C@H](CCc2cc(F)c(C(F)(F)F)c(F)c2)NC(=O)CN(C)C(=O)[C@H](Cc2ccc(C(F)(F)F)cc2)N2CC/C=C\C[C@@H](C2=O)N(C)C(=O)CN(C)C1=O [PP1682],AA (a compound having 20 or more is denoted as AA),A (a compound having 10 or more and less than 20 is denoted as A)
10.27,5.5,CCCN(C)C(=O)[C@@H]1CC(=O)N(C)[C@@H](CC2CC2)C(=O)N[C@@H]([C@@H](C)CC)C(=O)N(C)CC(=O)N(C)[C@H]2C/C=C\CCN(C2=O)[C@@H](Cc2ccc(C(F)(F)F)cc2)C(=O)N(C)CC(=O)N[C@@H](CCc2cc(F)c(C(F)(F)F)c(F)c2)C(=O)N2C[C@H](OCC)C[C@H]2C(=O)NC2(CC(F)(F)C2)C(=O)N(C)[C@@H](C2CCCC2)C(=O)N1C [PP1739],AA (a compound having 20 or more is denoted as AA),AA (a compound having 20 or more is denoted as AA)

# From patent US20240158446A1, “CYCLIC COMPOUND HAVING SELECTIVE INHIBITORY ACTION ON KRAS OVER HRAS AND NRAS” (CHUGAI SEIYAKU KABUSHIKI KAISHA, priority 2021, published 2024)
